Laboratory results: patent publication US20040106802A1, “Novel compounds and therapeutic uses thereof” (TORRENT PHARMACEUTICALS LTD., priority 2002, published 2004)
Structures can show the parent of a compound that is named as a salt.

Assays:
Porcine DPP-IV = target: T1, Porcine DPP-IV (Sus scrofa, UniProt P22411); assay: Assay of DPP-IV enzyme inhibitory activity (spectrophotometric, Gly-Pro-pNA cleavage); type: biochemical; conditions: Porcine DPP-IV, Gly-Pro-pNA substrate, 30° C.; mean ± SD of three experiments except compound Nos. 133 & 139; read-out: IC50 (μM) Mean ± SD, inhibitory activity on DPP-IV enzyme activity
T1 construct: purchased Sigma-Aldrich Germany

[1] = In-vitro free radical scavenging activity using DPPH free radical; conditions: 30° C., 30 minutes, 515 nm
Text: Free Radical Scavenging Activity:
To determine the in-vitro free radical scavenging activity of compounds of general formula-I on 2,2,-diphenyl-1-picrylhydrazyl (DPPH)radical (Ref: W. Brand-Williams, M. E. Cuvelier, C. Berset “Use of a free radical method to evaluate antioxidant activity”, Lebensm.- Wiss.u.Technol.,1995,28,Nr.1:25-30).
To evaluate the free radical scavenging activity of compounds they are allowed to react with stable radical DPPH*. In its radical form, DPPH* absorbed at the characteristic wave length of 515 nm, but upon reduction by an antioxidant or radical scavenger (AH), the absorption disappears.
10^−4M solution of DPPH* was prepared in methanol.
Various concentrations (10 mM, 1 mM, 0.5 mM, 0.25 mM and 0.125 mM) of drug solutions were prepared in methanol.
900 μl of DPPH radical solution was added to an eppendorf tube. To it was added 100 μl of methanol.
900 μl of DPPH radical solution was added to an eppendorf tube. To it was added 100 μl of various concentrations of drug solutions in methanol.
The absorbance of control and test samples was recorded after incubation at 30° C. for 30 minutes, at 515 nm taking methanol as blank.
The percent antioxidant activity was calculated according to the formula:
% Antioxidant activity=100−[O.D of test sample/O.D of control*100]

T1 sequence (P22411 whole entry): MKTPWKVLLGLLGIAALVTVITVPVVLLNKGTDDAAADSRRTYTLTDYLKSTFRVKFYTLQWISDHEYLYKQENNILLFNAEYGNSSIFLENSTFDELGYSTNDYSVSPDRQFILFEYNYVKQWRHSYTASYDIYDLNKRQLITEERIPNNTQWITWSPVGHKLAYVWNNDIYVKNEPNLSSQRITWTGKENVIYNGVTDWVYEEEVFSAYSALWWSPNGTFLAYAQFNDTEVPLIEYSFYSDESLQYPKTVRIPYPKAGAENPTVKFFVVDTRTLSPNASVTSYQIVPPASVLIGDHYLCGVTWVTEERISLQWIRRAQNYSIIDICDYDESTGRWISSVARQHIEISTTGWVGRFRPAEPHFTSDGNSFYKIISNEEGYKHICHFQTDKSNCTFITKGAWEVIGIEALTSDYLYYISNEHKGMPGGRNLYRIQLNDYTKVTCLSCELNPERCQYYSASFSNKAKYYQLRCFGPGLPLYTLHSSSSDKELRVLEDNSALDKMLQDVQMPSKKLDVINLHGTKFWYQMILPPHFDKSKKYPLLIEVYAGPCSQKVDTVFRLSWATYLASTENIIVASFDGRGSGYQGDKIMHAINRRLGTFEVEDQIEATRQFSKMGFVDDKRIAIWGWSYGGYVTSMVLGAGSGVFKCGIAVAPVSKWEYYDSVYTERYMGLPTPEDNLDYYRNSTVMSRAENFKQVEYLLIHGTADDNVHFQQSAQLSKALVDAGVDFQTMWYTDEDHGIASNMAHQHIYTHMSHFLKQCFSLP

Structure (SMILES)	IC50 (Porcine DPP-IV) [µM]	% Activity (antioxidant, DPPH) ([1]; Concentration 100 μM) [%]	% Activity (antioxidant, DPPH) ([1]; Concentration 12.5 μM) [%]	% Activity (antioxidant, DPPH) ([1]; Concentration 25 μM) [%]	% Activity (antioxidant, DPPH) ([1]; Concentration 50 μM) [%]	also measured
N#CC1CSCN1C(=O)CN(N)C1CCCC1.O=C(O)C(F)(F)F (centres unmarked) [Compound No. 19, 3-[1-Oxo-2-((1-Cyclopentyl)-hydrazino)]ethyl-4-cyano thiazolidine trifluoroacetate]	1.46 ± 0.16	94.55				
N#CC1CSCN1C(=O)CN(N)C1CCCCC1.O=C(O)C(F)(F)F (centres unmarked) [Compound No. 21, 3-[1-Oxo-2-((1-Cyclohexyl)-hydrazino)]ethyl-4-cyano thiazolidine trifluoroacetate]	2.01 ± 0.16	95.71				
CC1CCC(N(N)CC(=O)N2CSCC2C#N)CC1.O=C(O)C(F)(F)F (centres unmarked) [Compound No. 25, 3-[1-Oxo-2-((1-(4-methyl)cyclohexyl)hydrazino)]ethyl-4-cyano thiazolidine trifluoroacetate]	0.67 ± 0.03					% Activity (antioxidant, DPPH) ([1]; Concentration 100 μM, 100 µM): 95.66%
CC1CCC(N(N)CC(=O)N2CSCC2C#N)CC1.O=C(O)C(F)(F)F (centres unmarked) [Compound No. 29, 3-[1-Oxo-2-((1-(4-methyl)cyclohexyl)-hydrazino)]ethyl-4-cyano thiazolidine trifluoroacetate]	0.8 ± 0.15					% Activity (antioxidant, DPPH) ([1]; Concentration 100 μM, 100 µM): 93.70%
N#CC1CSCN1C(=O)CN(N)C1CCN(C(=O)N2CCOCC2)CC1.O=C(O)C(F)(F)F (centres unmarked) [Compound No. 85, 3-[1-oxo-2-[1-(1(morpholinocarbonyl)-piperidin-4-yl)]hydrazino]ethyl-4-cyano-thiazolidine trifluoroacetate]	0.79 ± 0.072	67.23	15.25	30.67	49.97	
CS(=O)(=O)N1CCC(N(N)CC(=O)N2CSCC2C#N)CC1.O=C(O)C(F)(F)F (centres unmarked) [Compound No. 86, 3-[1-oxo-2-[1-(1-(methylsulphonyl)-piperidin-4-yl)]hydrazino]ethyl-4-cyanothiazolidine trifluoroacetate]	1.46 ± 0.22	88.14	22.72	45.27	70.18	
CC(C)NN(CC(=O)N1CSCC1C#N)C1CCN(S(C)(=O)=O)CC1.O=C(O)C(F)(F)F (centres unmarked) [Compound No. 87, 3-[1-oxo-2-[1-(1 (methylsulphonyl)-piperidin-4-yl)-2-isopropyl]hydrazino]ethyl-4-cyanothiazolidine trifluoroacetate]	18.3 ± 3.2	55.94	12.87	30.88	44.03	
CCNN(CC(=O)N1CSCC1C#N)C1CCN(S(C)(=O)=O)CC1.O=C(O)C(F)(F)F (centres unmarked) [Compound No. 88, 3-[1-oxo-2-[1-(1-(methylsulphonyl)-piperidin-4-yl)-2-ethyl]hydrazino]ethyl-4-cyanothiazolidine trifluoroacetate]	3.75 ± 0.101	69.34	14.49	44.12	56.11	
CCNN(CC(=O)N1CSCC1C#N)C1CCN(C(=O)N2CCOCC2)CC1.O=C(O)C(F)(F)F (centres unmarked) [Compound No. 89, 3-[1-oxo-2-[1-(1-(morpholinocarbonyl)-piperidin-4-yl)-2-ethyl]hydrazino]ethyl-4-cyanothiazolidine trifluoroacetate]	0.985 ± 0.086	55.07	10.37	20.74	36.94	
CCN(C)C(=O)N1CCC(N(N)CC(=O)N2CSCC2C#N)CC1.O=C(O)C(F)(F)F (centres unmarked) [Compound No. 90, 3-[1-oxo-2-[1-(1-(N-ethylmethylaminocarbonyl)-piperidin-4-yl)]hydrazino]ethyl-4-cyanothiazolidine trifluoroacetate]	1.23 ± 0.3	82.75	21.81	42.93	62.91	
COc1ccc(S(=O)(=O)N2CCC(N(N)CC(=O)N3CSCC3C#N)CC2)cc1.O=C(O)C(F)(F)F (centres unmarked) [Compound No. 91, 3-[1-oxo-2-[1-(1-(4-methoxyphenylsulphonyl)-piperidin-4-yl)]hydrazino]ethyl-4-cyanothiazolidine trifluoroacetate]	6.7 ± 0.4	85.69	17.16	38.11	58.87	
COc1ccc(S(=O)(=O)NC2CCC(N(N)CC(=O)N3CSCC3C#N)CC2)cc1.O=C(O)C(F)(F)F (centres unmarked) [Compound No. 92, 3-[1-oxo-2-[1-(1-(4-methoxyphenylsulphonyl)aminocyclohexan-4-yl)]hydrazino]ethyl-4-cyanothiazolidine trifluoroacetate]	1.33 ± 0.124	78.77	10.07	30.36	58.48	
N#CC1CSCN1C(=O)CN(N)C1CCC(NCc2ccc(F)cc2)CC1 (centres unmarked) [Compound No. 93, 3-[1-oxo-2-[1-(1-(4-fluorobenzyl)aminocyclohexan-4-yl)]hydrazino]ethyl-4-cyanothiazolidine bis-trifluoroacetate]	5.56 ± 0.18	64.24	15.18	28.08	44.13	
N#CC1CSCN1C(=O)CN(N)C1CCN(Cc2ccc(F)cc2)CC1 (centres unmarked) [Compound No. 94, 3-[1-oxo-2-[1-(1-(4-fluorobenzyl)-piperidin-4-yl)]hydrazino]ethyl-4-cyanothiazolidine bis-trifluoroacetate]	2.23 ± 0.08	55.85	9.34	24.05	39.04	
CC(C)(C)C(=O)NC1CCC(N(N)CC(=O)N2CSCC2C#N)CC1.O=C(O)C(F)(F)F (centres unmarked) [Compound No. 96, 3-[1-oxo-2-[1-(1-(trimethylacetamido)cyclohexan-4-yl)]hydrazino]ethyl-4-cyanothiazolidine trifluoroacetate]	4 ± 0.144					% Activity (antioxidant, DPPH) ([1]; Concentration 12.5 μM, 12.5 µM): 19.11%; % Activity (antioxidant, DPPH) ([1]; Concentration 25 μM, 25 µM): 34.43%; % Activity (antioxidant, DPPH) ([1]; Concentration 50 μM, 50 µM): 48.83%; % Activity (antioxidant, DPPH) ([1]; Concentration 100 μM, 100 µM): 63.26%
N#CC1CSCN1C(=O)CN(N)C1CCC(NC(=O)c2ccc(F)cc2)CC1.O=C(O)C(F)(F)F (centres unmarked) [Compound No. 100]		77.75	31.14	41.49	59.54	
N#CC1CSCN1C(=O)CN(N)C1CCN(CC(=O)Nc2ccc3c(c2)OCCO3)CC1 (centres unmarked) [Compound No. 104, 3-[1-oxo-2-[1-(1-(2-oxo-2(2,3dihydrobenzo(1,4)dioxan-6-yl)aminoethyl)piperidin-4-yl)]hydrazino]ethyl-4-cyano-thiazolidine bis-trifluoroacetate]		50.14	19.40	36.23	42.20	
N#CC1CSCN1C(=O)CN(N)C1CCN(CC(=O)Nc2ccc(Cl)cc2)CC1 (centres unmarked) [Compound No. 105, 3-[1-oxo-2-[1-(1-(2-oxo-2(4-chlorophenyl)aminoethyl)piperidin-4-yl)]hydrazino]ethyl-4-cyanothiazolidine bis-trifluoroacetate]		49.63	24.03	35.27	49.25	
N#CC1CSCN1C(=O)CN(N)C1CCN(CC(=O)Nc2ccc(Cl)cn2)CC1 (centres unmarked) [Compound No. 115, 3-[-1-oxo-2-[1-(1-(−2-oxo-2-(5-chloropyridin-2-yl)aminoethyl)piperidine-4-yl)]hydrazino]ethyl-4-cyanothiazolidine trihydrochloride]						% Activity (antioxidant, DPPH) ([1]; Concentration 12.5 μM, trihydrochloride, 12.5 µM): 19.46%; % Activity (antioxidant, DPPH) ([1]; Concentration 25 μM, trihydrochloride, 25 µM): 26.94%; % Activity (antioxidant, DPPH) ([1]; Concentration 50 μM, trihydrochloride, 50 µM): 46.24%; % Activity (antioxidant, DPPH) ([1]; Concentration 100 μM, trihydrochloride, 100 µM): 75.84%
N#CC1CSCN1C(=O)CN(N)C1CCN(CC(=O)Nc2cccnc2Cl)CC1 (centres unmarked) [compound 121]		57.13				
